Earlier results in US20120277309A1, “METHODS OF CONTROLLING VENOUS IRRITATION ASSOCIATED WITH THE TREATMENT OF A CARDIAC DISORDER” (BAXTER HEALTHCARE S.A., priority 2011, published 2012).
Structures can show the parent of a compound that is named as a salt.

Tests used:
[1] = packaging insert, Baxter; incidence increases with concentration
beta-adrenergic = details: disclosed in WO 88/01614

Structure (SMILES) | Venous irritation in patients on infusion [1] | Potency as a beta-adrenergic-blocking agent relative to an equivalent amount of the racemic mixture (beta-adrenergic)
COC(=O)CCc1ccc(OCC(O)CNC(C)C)cc1 (racemic) [R,S-esmolol hydrochloride, methyl-3-[4-(2-hydroxy-3-isopropylamino)propoxy]phenylpropionate hydrochloride] | A significant number of patients experience venous irritation at the infusion site | –
COC(=O)CCc1ccc(OC[C@@H](O)CNC(C)C)cc1.Cl (single isomer, unassigned) [S-isomer of esmolol hydrochloride] | – | about twice
